How the values were obtained:
[1] = Measured solubilities of ECA and PECA in solvents and of solvents in PECA; settings: ±10%; for Solubility (wt %) ECA in: solubility of ECA in the listed solvent; for Solubility (wt %) PECA in: solubility of PECA in the listed solvent; for Solubility (wt %) in PECA: solubility of the listed solvent in PECA
[2] = from Ref. [17]; cited from earlier work
[3] = at 20° C.; from Refs [18], [19]; cited from earlier work

## CC(C)=O [acetone]
[1]
  Solubility (wt %) ECA in: miscible
  Solubility (wt %) PECA in: miscible
  Solubility (wt %) in PECA: miscible
[2]
  ET^N normalized empirical parameter of solvent polarity: 0.355
[3]
  σ surface tension: 24.1 mN/m

## C1CCCCC1 [cyclohexane]
[2]
  ET^N normalized empirical parameter of solvent polarity: 0.006
[3]
  σ surface tension: 25.2 mN/m

## COCCOC [1,2-dimethoxyethane]
[1]
  Solubility (wt %) ECA in: miscible
  Solubility (wt %) PECA in: miscible
  Solubility (wt %) in PECA: miscible

## CCCCCCC [n-heptane]
[1]
  Solubility (wt %) ECA in: 7.5 wt %
  Solubility (wt %) PECA in: 0.05 wt %
  Solubility (wt %) in PECA: 0.4 wt %
[2]
  ET^N normalized empirical parameter of solvent polarity: 0.012
[3]
  σ surface tension: 20.1 mN/m

## CCCCCC [n-hexane]
[2]
  ET^N normalized empirical parameter of solvent polarity: 0.009
[3]
  σ surface tension: 18.4 mN/m

## CCOC(C)=O [ethyl acetate]
[2]
  ET^N normalized empirical parameter of solvent polarity: 0.228
[3]
  σ surface tension: 24.1 mN/m

## xylene
[1]
  Solubility (wt %) ECA in: miscible
  Solubility (wt %) PECA in: 0.24 wt %
[2]
  ET^N normalized empirical parameter of solvent polarity: 0.074
[3]
  σ surface tension: 29.3 mN/m

## CCCCC [n-pentane]
[1]
  Solubility (wt %) ECA in: 11.4 wt %
  Solubility (wt %) PECA in: 0.11 wt %
  Solubility (wt %) in PECA: 0.8 wt %
[2]
  ET^N normalized empirical parameter of solvent polarity: 0.009
[3]
  σ surface tension: 16.1 mN/m

## CCOCC [diethyl ether]
[1]
  Solubility (wt %) ECA in: miscible
  Solubility (wt %) PECA in: 0.10 wt %
[2]
  ET^N normalized empirical parameter of solvent polarity: 0.117
[3]
  σ surface tension: 17.1 mN/m

## Cc1ccccc1 [toluene]
[2]
  ET^N normalized empirical parameter of solvent polarity: 0.099

Source: patent US10703843B2, “Compositions and methods for bonding glues, adhesives, and coatings to surfaces” (University of Virginia Patent Foundation, priority 2014, dated 2020)
